Data set [1] relates to Staphylococcus aureus London CIP A.238. Kind of data set: Minimal inhibiting concentration (MIC), Gram+ strain (Table IV). It is filed as cell-based. The following applies: for MIC: Staphylococcus aureus. The source says:
(§1) A certain number of compounds according to the invention are given non-restrictively by way of illustration in tables I, II and III hereinafter. The minimal inhibiting concentrations (MIC) of these compounds vis-a-vis a Gram+bacteria (Staphylococcus aureus London) a Gram-bacteria (Escherichia coli) and a fungus (Candida albicans) are given hereinafter in table IV. In table V are tabulated the MIC values of two compounds according to the invention which are particularly interesting [compound B 673 (example 26) and compound B 674 (example 29)] vis-a-vis several strains.
(§2) The strains used are those of the catalogues of the "Institut Pasteur" of Paris (abbreviation: CIP), the "Centre International de Distribution de Souches et d'Information sur les Types Microbiens de Lausanne" (abbreviation: La) and the "American Type Culture Collection" (abbreviation: ATCC).
G^+ = Gram^+ strain: Staphylococcus aureus London CIP A.238

Data set [2] relates to Escherichia coli CIP 54.8. Kind of data set: Minimal inhibiting concentration (MIC), Gram- strain (Table IV). The note with it: CIP54. It is filed as cell-based.
Text: as §1, §2
G^- = Gram^- strain: Escherichia coli CIP 54.8

For data set [3], the system named is Candida albicans CIP 1180. Kind of data set: Minimal inhibiting concentration (MIC), fungus strain (Table IV). The format is cell-based. The following applies: for MIC C: Candida albicans CIP 1180; for MIC: Candida albicans, CIP1180, Candida albicans CIP 1180.
Text: as §1, §2
C = fungus strain: Candida albicans CIP 1180

Data set [4] is described as follows: Toxicity, LD-50 mice (Table VI). The following applies: for LD50: mouse, in vivo.

≈ marks a conversion by molar mass, not a printed value. Entries after “also recorded” stand apart in the source; their conditions may differ. Like-named read-outs stand apart in the source and are kept apart here. Some results are limits rather than exact numbers.

Here are results for 27 compounds from patent US4659741A, “β-[2-(halogenobenzyl)-phenoxy]-ethylamine derivatives” (Institut de Recherches Chimiques et Biologiques Appliquees …, priority 1983, dated 1987).

One may read the MIC as the lowest concentration that inhibits growth of the organism. Higher therefore signals weaker potency. `CCN(CC)CCOc1ccc(C)cc1Cc1ccc(Cl)cc1Cl` [Example 1]: the minimum inhibitory concentration (MIC) in data set [1] is 12.5 µg/mL (≈ 34.1 µM); in data set [2] it was 50 µg/mL (≈ 136 µM).
As to `CCc1ccc(OCCN(CC)CC)c(Cc2ccc(Cl)cc2Cl)c1` [Example 2], in data set [1] (listed as Ex 2), the “MIC G^+” value worked out at 64 μ g/ml. The “MIC C” value in data set [3] (listed as Ex 2) was 64 μ g/ml.
Regarding `CCN(CC)CCOc1ccc(C(C)C)cc1Cc1ccc(Cl)cc1Cl` [Example 3], in data set [1] (listed as Ex 3), the “MIC G^+” value is reported as 16 μ g/ml. The same compound had an MIC in data set [3] of 8 µg/mL (≈ 20.3 µM).
On to `CCC(C)c1ccc(OCCN(CC)CC)c(Cc2ccc(Cl)cc2Cl)c1` (stereo not shown) [Example 4], for which, in data set [1] (listed as Ex 4), the “MIC G^+” value is listed as 32 μ g/ml. Besides, the “MIC C” value in data set [3] (listed as Ex 4) is recorded as 16 μ g/ml.
In turn, `CCN(CC)CCOc1ccc(C(C)(C)C)cc1Cc1ccc(Cl)cc1Cl` [Example 5, β-[2-(2,4-dichlorobenzyl)-4-tertiobutylphenoxy]-N,N-diethyl-ethylamin] showed an MIC in data set [1] of 50 µg/mL (≈ 122 µM).
As for `CCN(CC)CCOc1ccc(C(C)(C)CC)cc1Cc1ccc(Cl)cc1Cl` [Example 6, β-[2-(2,4-dichlorobenzyl)-4-(1,1-dimethylpropyl)-phenoxy]-N,N-diethylethylamine], the MIC in data set [1] is 8 µg/mL (≈ 18.9 µM); in data set [3], 16 µg/mL (≈ 37.9 µM).
For `CCCCc1ccc(OCCN(CC)CC)c(Cc2ccc(Cl)cc2Cl)c1` [Example 7], the MIC in data set [1], in data set [2] and in data set [3] was 64 µg/mL (≈ 157 µM) in each case.
Regarding `CCCCCCc1ccc(OCCN(CC)CC)c(Cc2ccc(Cl)cc2Cl)c1` [Example 8], the MIC in data set [1], in data set [2] and in data set [3] was 64 µg/mL (≈ 147 µM) in each case.
Regarding `CCN(CC)CCOc1ccc(C(C)(C)CC(C)(C)C)cc1Cc1ccc(Cl)cc1Cl` [Example 9], the minimum inhibitory concentration (MIC) in data set [1] came to 25 µg/mL (≈ 53.8 µM).
On to `CC(C)c1ccc(OCCN(C)C)c(Cc2ccc(Cl)c(Cl)c2)c1` [Example 10], for which the MIC in data set [1] was 16 µg/mL (≈ 43.7 µM); in data set [2] it was 64 µg/mL (≈ 175 µM).
In the case of `CCc1ccc(OCCN(CC)CC)c(Cc2ccc(Cl)cc2Cl)c1` [Example 11], the “MIC G^+” value in data set [1] (listed as Ex 11) stood at 8 μ g/ml. Further, the “MIC C” value in data set [3] (listed as Ex 11) was 8 μ g/ml. Also, the spasmolytic properties entry in the data set “Spasmolytic properties” is on record as “beneficial spasmolytic properties”.
`CCN(CC)CCOc1ccc(C(C)C)cc1Cc1ccc(Cl)cc1Cl` [Example 12]: in data set [1] (listed as Ex 12), the “MIC G^+” value is 4 μ g/ml. The “MIC C” value in data set [3] (listed as Ex 12) was determined as 4 μ g/ml. For the same compound, the spasmolytic properties entry in the data set “Spasmolytic properties” (listed as B 805) is “beneficial spasmolytic properties; also recorded: The most interesting compound, as spasmolytic agent”.
With `CCC(C)c1ccc(OCCN(CC)CC)c(Cc2ccc(Cl)cc2Cl)c1` (stereo not shown) [Example 13], the “MIC G^+” value in data set [1] (listed as Ex 13) came to 8 μ g/ml. Also, the “MIC C” value in data set [3] (listed as Ex 13) was found to be 0.5 μ g/ml. Further, the spasmolytic properties entry in the data set “Spasmolytic properties” is “beneficial spasmolytic properties”.
Take `CCN(CC)CCOc1ccc(C(C)(C)CC)cc1Cc1ccc(Cl)cc1Cl.Cl` [Example 14, β-[2-(2,4-dichlorobenzyl)-4-(1,1-dimethylpropyl)-phenoxy]-N,N-diethylethylamine hydrochloride]: the MIC was 8 µg/mL in data set [1], 64 µg/mL in data set [2] and 4 µg/mL in data set [3]. The spasmolytic properties entry in “Spasmolytic properties” is “beneficial spasmolytic properties”.
In the case of `CCN(CC)CCOc1ccc(C(C)(C)CC(C)(C)C)cc1Cc1ccc(Cl)cc1Cl` [Example 15], the “MIC G^+” value in data set [1] (listed as Ex 15) was found to be 16 μ g/ml. The spasmolytic properties entry in “Spasmolytic properties” was “beneficial spasmolytic properties”.
With `CCC(C)(C)c1ccc(OCC[N+](C)(CC)CC)c(Cc2ccc(Cl)cc2Cl)c1.[I-]` [Example 21, N,N-diethyl-N-{2-[2-(2,4-dichlorobenzyl)-4-(1,1-dimethylpropyl)-phenoxy]-ethyl}-N-methylammonium iodide], the values for the MIC in data set [1], in data set [2] and in data set [3] were 0.125 µg/mL, 8 µg/mL and 0.5 µg/mL, respectively.
Consider `CC[N+](C)(CC)CCOc1ccc(C(C)(C)CC(C)(C)C)cc1Cc1ccc(Cl)cc1Cl` [Example 22], for which the MIC in data set [1] turned out to be 0.125 µg/mL; in data set [2], 64 µg/mL; in data set [3], 0.25 µg/mL.
Broadly, the LD50 is the dose at which mortality reaches 50%. Higher therefore signals lower toxicity. As to `CCCC[N+](CC)(CC)CCOc1ccc(C(C)(C)CC)cc1Cc1ccc(Cl)cc1Cl.[Br-]` [Example 23, N,N-diethyl-N-{2-[2-(2,4-dichlorobenzyl)-4-(1,1-dimethylpropyl)-phenoxy]-ethyl}-N-butylammonium bromide], the figures for the MIC in data set [1], in data set [2] and in data set [3] were 0.06 µg/mL, 4 µg/mL and 0.25 µg/mL, respectively. Moreover, in data set [4], the 50% lethal dose (LD50) was greater than 1000 mg/kg.
With `CCCC[N+](CC)(CC)CCOc1ccc(C(C)(C)CC(C)(C)C)cc1Cc1ccc(Cl)cc1Cl` [Example 24], the results for the MIC in data set [1], in data set [2] and in data set [3] were 0.015 µg/mL, 16 µg/mL and 1 µg/mL, respectively.
As for `CCc1ccc(OCC[N+](CC)(CC)Cc2ccccc2)c(Cc2ccc(Cl)cc2Cl)c1` [Example 27], the MIC turned out to be 0.125 µg/mL in data set [1], 8 µg/mL in data set [2] and 0.5 µg/mL in data set [3]. In addition, the LD50 in data set [4] came to 850 mg/kg.
As to `CC[N+](CC)(CCOc1ccc(C(C)C)cc1Cc1ccc(Cl)cc1Cl)Cc1ccccc1` [Example 28], the MIC was found to be 0.015 µg/mL in data set [1], 8 µg/mL in data set [2] and 0.25 µg/mL in data set [3].
For the compound `CCC(C)(C)c1ccc(OCC[N+](CC)(CC)Cc2ccccc2)c(Cc2ccc(Cl)cc2Cl)c1` [Example 30], the MIC was determined as 0.004 µg/mL in data set [1], 4 µg/mL in data set [2] and 0.25 µg/mL in data set [3]. The same compound registered an LD50 in data set [4] greater than 1000 mg/kg.
For `CCCCc1ccc(OCC[N+](CC)(CC)Cc2ccccc2)c(Cc2ccc(Cl)cc2Cl)c1` [Example 31] the same measures were 0.031 µg/mL, 4 µg/mL, 0.125 µg/mL and greater than 1000 mg/kg.
Turning to `CCCCCCc1ccc(OCC[N+](CC)(CC)Cc2ccccc2)c(Cc2ccc(Cl)cc2Cl)c1` [Example 32], the MIC in data set [1] came to 0.125 µg/mL; in data set [2], 16 µg/mL; in data set [3] it was 0.5 µg/mL.
Regarding `CC[N+](CC)(CCOc1ccc(C(C)(C)CC(C)(C)C)cc1Cc1ccc(Cl)cc1Cl)Cc1ccccc1` [Example 33], the MIC in data set [1] turned out to be 0.03 µg/mL; in data set [3] it was 1 µg/mL.
With `CCCCCCCCCCCCCCCC[N+](C)(C)C` [Example A-2, cetrymonium chloride, reference compound], the LD50 in data set [4] came out at 750 mg/kg.
In the case of “benzalkonium chloride [Example A-1, reference compound]”, the LD-50 mice in data set [4] (mice, route not given) is 550 mg/kg.
